In one assay the target is T1, Kv2.2 (UniProt Q92953).
T1 sequence (Q92953 1-911): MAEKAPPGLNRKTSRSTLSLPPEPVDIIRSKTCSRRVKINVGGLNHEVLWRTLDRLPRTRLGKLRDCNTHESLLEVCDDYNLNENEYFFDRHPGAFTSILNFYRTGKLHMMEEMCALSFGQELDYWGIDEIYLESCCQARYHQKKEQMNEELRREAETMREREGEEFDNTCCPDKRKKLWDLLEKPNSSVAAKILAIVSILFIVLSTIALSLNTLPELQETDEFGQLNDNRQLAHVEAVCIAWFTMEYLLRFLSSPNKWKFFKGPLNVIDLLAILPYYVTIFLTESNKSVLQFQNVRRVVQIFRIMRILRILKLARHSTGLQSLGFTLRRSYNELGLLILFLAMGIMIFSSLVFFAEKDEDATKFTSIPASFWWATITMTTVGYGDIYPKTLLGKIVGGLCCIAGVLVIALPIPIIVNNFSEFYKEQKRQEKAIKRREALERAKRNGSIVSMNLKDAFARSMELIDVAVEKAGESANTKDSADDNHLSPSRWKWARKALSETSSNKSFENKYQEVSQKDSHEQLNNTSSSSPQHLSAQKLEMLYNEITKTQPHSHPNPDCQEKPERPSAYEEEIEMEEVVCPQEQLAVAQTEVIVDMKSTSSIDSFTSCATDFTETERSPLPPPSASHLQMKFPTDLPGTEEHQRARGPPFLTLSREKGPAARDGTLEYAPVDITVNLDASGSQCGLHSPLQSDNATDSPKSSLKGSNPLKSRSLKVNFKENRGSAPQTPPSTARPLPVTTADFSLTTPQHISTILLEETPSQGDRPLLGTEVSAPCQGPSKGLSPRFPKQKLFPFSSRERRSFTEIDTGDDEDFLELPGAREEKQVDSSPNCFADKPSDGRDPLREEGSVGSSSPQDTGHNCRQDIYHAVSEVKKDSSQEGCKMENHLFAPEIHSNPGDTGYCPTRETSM
The note with it: cited from earlier work; for IC50: read-out: IC50, inhibition of Kv2.2 current.

Assay [1] concerns slow component of the delayed rectifier current in native colonic myocytes. The note with it: 1 microM; cited from earlier work.
A further assay concerns Kv2.1/Kv9.1. The note with it: cited from earlier work.
A further assay has as its system Kv2.1. The following applies: Kv2.1 alone; cited from earlier work.
Another assay has as its system Human lung fibroblasts. The assay is described as follows: Human lung fibroblast growth, Alamar Blue. In kind it is cell-based. The following applies: 3 days in basal medium. The method, then:
Human lung fibroblasts are obtained from Clonetics (San Diego, Calif.) and maintained in growth media from Clonetics. Dermal microvascular endothelial cells are obtained from Cell Applications (San Diego, Calif.). For proliferation assays, the human lung fibroblasts and dermal microvascular endothelial cells can be cultured at 5,000 cells/well in a 96-well plate for one day in growth medium. The cells are then incubated for one day in 0.1% BSA basal medium. After replacing the medium with fresh 0.1% BSA medium, the cells are incubated with the test proteins for 3 days. Alamar Blue (Alamar Biosciences, Sacramento, Calif.) is added to each well to a final concentration of 10%. The cells are incubated for 4 hr. Cell viability is measured by reading in a CytoFluor fluorescence reader. For the PGE2 assays, the human lung fibroblasts are cultured at 5,000 cells/well in a 96-well plate for one day. […]
Background: The colour change of resazurin is a common sign of viable cells or microbes.

Assay [2] has as its system nigral dopaminergic neurons. The note with it: gel foam implants in the striatum; cited from earlier work.
Assay [3] concerns cortical or hippocampal neurons. The following applies: in vitro; cited from earlier work.
Assay [4] relates to nigral dopaminergic neurons. The following applies: tissue culture paradigms; cited from earlier work.
[5] abbreviates: Xenopus oocytes injected with Kv2.2 mRNA.

These results are taken from patent US20030152953A1, “Polynucleotide encoding a novel human potassium channel alpha-subunit, K+alphaM2” (priority 2001, published 2003).

Like-named read-outs stand apart in the source and are kept apart here.

A word on the IC50: it is the concentration that gives 50% inhibition.

For the compound charybdotoxin, in the assay with Kv2.2 (setting [5]), the “sensitivity of Kv2.2 current” value is “insensitive”.

With `C=C[C@H]1C[N@@]2CC[C@H]1C[C@H]2[C@H](O)c1ccnc2ccc(OC)cc12` [quinine], on Kv2.2 (setting [5]), the half-maximal inhibitory concentration (IC50) is 0.0137 mM. In assay [1], the “block of delayed rectifier current” value is given as “preferentially block the slow component of the delayed rectifier current”.

On to `CC[N+](CC)(CC)CC` [tetraethylammonium], for which the “effect on biphasic voltage-dependence of currents” value with Kv2.1/Kv9.1 (20 mM) is “eliminate the biphasic voltage-dependence”. Further, the “sensitivity of currents to blocker” value in the assay with Kv2.1/Kv9.1 (Kv2.1/Kv9.1) and in the assay with Kv2.1 was “sensitive” in each case. Moreover, the IC50 at Kv2.2 was 2.6 mM.

For the compound “FGF-2: FGF-2 (basic FGF), fibroblast growth factor”, the “concentration showing stimulation of fibroblast growth” value with Human lung fibroblasts lay within 10 to 2500 ng/mL. Moreover, the “protection of nigral dopaminergic neurons from MPTP toxicity” value in assay [2] is listed as “near complete protection”. In assay [3], the neurite outgrowth result is recorded as “increases” and the neuron survival result is reported as “increases”. Moreover, the “activity towards nigral dopaminergic neurons” value in assay [4] was “trophic activity”.
